US20250041312A1, “METHODS OF ADMINISTERING A MODULATOR OF HEMOGLOBIN” (Global Blood Therapeutics, Inc., priority 2021, published 2025)
Read-outs that look alike come from different tables or passages of the source. Marks after values point to notes of the source that are not given here.

Key:
Format in all cases: in vivo, human
red blood cells = assay: Ektacytometry (Lorrca Oxygenscan) red blood cell deformability, SCD patients
Excerpt: An ektacytometer laser optical rotational red cell analyzer (Lorrca; RR Mechatronics, NL) was used to analyze deformability of red blood cells using a defined value of shear stress with an increasing osmotic gradient (Osmoscan) as well as a newer technology to subject these cells to gradual deoxygenation (Oxygenscan).

[1] = MAD study in healthy volunteers: whole blood and plasma PK; details: for AUC(0-t): read-out: AUC0-24; for concentration at 14 day: read-out: Cmin
Method: Another study was initiated in healthy volunteer aged 18-55 years old to evaluate the safety and tolerability of multiple ascending doses of Compound I. Four cohorts of 10 subjects each (n=7 Compound I, n=3 placebo) were evaluated in a sequential double-blind manner. To reach steady state levels each subject received a loading dose regimen for 3 or 4 days followed by once daily medication for up to 14 days. Primary endpoints were safety and tolerability; key secondary endpoints included PK and effect on electrocardiogram (ECG) parameters. Table 7 below provides an overview of the doses of Compound I or placebo that were used in each cohort.
Preliminary whole blood PK parameters (geometric mean and % CV) and hemoglobin occupancy in healthy volunteers of the 15 mg, 25 mg, 50 mg, and 75 mg MAD cohorts are summarized in Table 10.

[2] = SCD cohort PK after repeated dosing; details: for Cmax: 150 mg
Method: (§1) After a washout period of at least 56 days (so that elimination PK of Compound I could be assessed), the patients were administered a loading dose of 300 mg per day of Compound I for one day followed by 200 mg per day of Compound I for one day, and then were administered a maintenance dose of 50 mg per day of Compound I for five weeks (“MAD-1 Cohort”). The same patients then received another loading dose of 500 mg per day of Compound I for one day followed by 400 mg per day of Compound I for one day, and then were administered another maintenance dose of 100 mg per day of Compound I for three weeks (“MAD-2 Cohort”). The total treatment period of the MAD-1 Cohort and MAD-2 Cohort was 8 weeks.
(§2) Following the conclusion of the MAD-2 study and a washout period of about 8 months, the selected patients (n=4) were administered a loading dose of 300 mg BID for 4 days, followed thereafter by a maintenance dose of 150 mg QD (MAD-3 Cohort).
The concentrations of Compound I in whole blood and plasma at week 6 in patients who participated in the MAD-3 cohort are shown in Table 19.

[3] = SCD cohort safety (TEAEs)
Method: as §1
Primary endpoints were safety and tolerability. Key secondary endpoints included PK and the relationship between time-matched Compound I concentrations and changes in clinical measures of anemia and hemolysis from baseline.
The majority of treatment emergent adverse events were grade 1 or 2 and unrelated to study drug.
as §2

[4] = MAD-3 SCD patients N=4 (300 mg BID x 4 days, then 150 mg QD)
[5] = SCD N=6, single dose and multiple dose portions (Table 13A)
[6] = SCD n=6, single dose, MAD-1 (50 mg qd) and MAD-2 (100 mg qd) (Table 13B)

B:P ratio (mean AUC0-24 blood:mean AUC0-24 plasma) ([1]; HV MAD Day 14, 75 mg QD maintenance): 140 | AUC(0-t) ([1]; human, HV MAD Day 14, 15 mg QD maintenance, whole blood): 2840 µg·h/mL | concentration at 14 day ([1]; human, HV MAD Day 14, 25 mg QD maintenance, whole blood): 135 µg/mL | Tmax ([1]; human, HV MAD Day 14, 50 mg QD maintenance, whole blood, median): 3 h | AUC(0-t) ([1]; human, HV MAD Day 14, 50 mg QD maintenance, whole blood): 5140 µg·h/mL | Cmax ([1]; human, HV MAD Day 14, 75 mg QD maintenance (loading 500/500/500/400 mg), whole blood): 308 µg/mL | concentration at 14 day ([1]; human, HV MAD Day 14, 75 mg QD maintenance, whole blood): 297 µg/mL | time to steady-state concentrations with model-selected first doses ([2]; SCD, loading doses followed by 50 mg and 100 mg second doses (FIG. 15)): ≤ 1 week | half-life ([2]; human, in vivo, SCD, after the last dose (MAD-2), assessed over about 15 weeks, read-out: elimination t1/2 (converted)): ~240 h | Cmax ([2]; human, plasma, MAD-3 (150 mg QD) week 6, SCD patient 0001, read-out: Plasma (Cmax) Concentration): 6.98 µg/mL | Cmax ([2]; human, plasma, MAD-3 (150 mg QD) week 6, SCD patient 0003 (did not adhere to regimen), read-out: Plasma (Cmax) Concentration): 1.61 µg/mL | Cmax ([2]; human, plasma, MAD-3 (150 mg QD) week 6, SCD patient 0004, read-out: Plasma (Cmax) Concentration): 3.83 µg/mL | Cmax ([2]; human, plasma, MAD-3 (150 mg QD) week 6, SCD patient 0005, read-out: Plasma (Cmax) Concentration): 7.61 µg/mL | Cmax ([2]; human, whole blood, MAD-3 (150 mg QD) week 6, SCD patient 0001, read-out: Whole Blood (Cmax) Concentration): 322 µg/mL | Cmax ([2]; human, whole blood, MAD-3 (150 mg QD) week 6, SCD patient 0003 (did not adhere to regimen), read-out: Whole Blood (Cmax) Concentration): 36.7 µg/mL | Cmax ([2]; human, whole blood, MAD-3 (150 mg QD) week 6, SCD patient 0004, read-out: Whole Blood (Cmax) Concentration): 259 µg/mL | Cmax ([2]; human, whole blood, MAD-3 (150 mg QD) week 6, SCD patient 0005, read-out: Whole Blood (Cmax) Concentration): 308 µg/mL
Structure (SMILES): O=Cc1c(O)cccc1OC[C@@H]1COCCN1C(=O)c1cccnc1CCO [Compound I, (S)-2-hydroxy-6-((4-(2-(2-hydroxyethyl)nicotinoyl)morpholin-3-yl)methoxy)benzaldehyde]
red blood cell health (Oxygenscan) (red blood cells; MAD-3 cohort SCD patients, 6 weeks (FIG. 13)): Improvement in red blood cell health | red blood cell health by Oxygenscan testing (red blood cells; SCD patients, MAD-1 and MAD-2 (FIG. 9)): Improvements in red blood cell health were seen in all patients | Number of SAEs [3, 4]: 0 | Number of TEAEs [3, 4]: 6 | Number of TEAEs grade ≥ 3 [3, 4]: 0 | Number of TEAEs leading to study drug discontinuation [3, 4]: 0 | Number of drug-related TEAEs [3, 4]: 1 | Number of TEAEs [3, 5]: 24 | Number of TEAEs grade ≥ 3 [3, 5]: 5 | Number of TEAEs leading to study drug discontinuation [3, 5]: 0 | Number of drug-related TEAEs ([3]; SCD N=6, single dose and multiple dose portions (Table 13A), 1 grade 2 headache, 2 grade 1 diarrhea): 3^a | Number of SAEs ([3]; SCD N=6, single dose and multiple dose portions (Table 13A), SAEs were grade 3 VOCs): 2^b | safety and tolerability ([3]; SCD cohort, single dose portion and multiple ascending dose phases): safe and well tolerated | Number of SAEs [3, 6]: 3 | Number of TEAEs [3, 6]: 33 | Number of TEAEs grade ≥ 3 [3, 6]: 7 | Number of TEAEs leading to study drug discontinuation [3, 6]: 0 | Number of drug-related TEAEs [3, 6]: 4 | tolerability ([3]; adults with SCD, daily maintenance doses of 150 mg): well tolerated
